Experimental findings from ChEMBL document CHEMBL1201862, “PubChem BioAssay data set” (2004) are described below.

As a reminder, the IC50 is the point on the concentration scale where inhibition reaches its midpoint. As usually defined, the AC50 is the midpoint of the concentration-response curve, whichever way the signal moves. A word on the Ki: it is the equilibrium dissociation constant of an inhibitor or competing ligand from its target. A word on the CC50: it is the concentration at which the toxic effect on the cells reaches its halfway point.

The structures appear in SMILES notation. Activity calls are given as the source filed them.

In experiment [1] the target is T1, Bcl-2-related protein A1 (Mus musculus, UniProt Q07440).
T1 sequence (Q07440 whole entry): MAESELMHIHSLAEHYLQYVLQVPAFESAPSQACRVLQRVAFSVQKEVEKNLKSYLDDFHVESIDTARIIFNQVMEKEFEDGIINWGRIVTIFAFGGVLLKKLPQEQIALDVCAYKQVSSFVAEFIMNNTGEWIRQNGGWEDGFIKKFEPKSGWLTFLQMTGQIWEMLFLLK
Put plainly: Bfl-1 binding inhibitors, SAR follow-up, biochemical, fluorescence polarization (AID 1070). On the technique in general: Polarisation of emitted light reports the rotation of a fluorescent probe.

Experiment [2] in a line: HepG2 cell cytotoxicity, dose response, cytotoxicity control, ATP luminescence, cherry-pick, activator set 2 (AID 1053143). The class given is functional, cell-based.
Experiment [3] has as its target T1, Bcl-2-related protein A1. Put plainly: Bfl-1 inhibitors blocking BH3 peptide binding, confirmation, biochemical, TR-FRET, mouse Bfl-1 (AID 621).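 Also: TR-FRET binding of GST-Bfl-1 to FITC-labelled Bid peptide via terbium antibody.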 In general terms: In TR-FRET formats the signal depends on donor and acceptor labels being close together.
The target in experiment [4] is Induced myeloid leukemia cell differentiation protein Mcl-1 (Homo sapiens, UniProt Q07820). The class given is functional.
The next experiment has as its target fMet-Leu-Phe receptor (Homo sapiens, UniProt P21462). Put plainly: FPR ligands, dose response (AID 519). It is filed as functional.
The target in another experiment is Cytochrome P450 3A4 (Homo sapiens, UniProt P08684).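 Also: CYP3A4 tested as one member of a cytochrome P450 panel screen.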
Experiment [5] deals with T2, Microphthalmia-associated transcription factor (Homo sapiens, UniProt O75030).
T2 sequence (O75030 whole entry): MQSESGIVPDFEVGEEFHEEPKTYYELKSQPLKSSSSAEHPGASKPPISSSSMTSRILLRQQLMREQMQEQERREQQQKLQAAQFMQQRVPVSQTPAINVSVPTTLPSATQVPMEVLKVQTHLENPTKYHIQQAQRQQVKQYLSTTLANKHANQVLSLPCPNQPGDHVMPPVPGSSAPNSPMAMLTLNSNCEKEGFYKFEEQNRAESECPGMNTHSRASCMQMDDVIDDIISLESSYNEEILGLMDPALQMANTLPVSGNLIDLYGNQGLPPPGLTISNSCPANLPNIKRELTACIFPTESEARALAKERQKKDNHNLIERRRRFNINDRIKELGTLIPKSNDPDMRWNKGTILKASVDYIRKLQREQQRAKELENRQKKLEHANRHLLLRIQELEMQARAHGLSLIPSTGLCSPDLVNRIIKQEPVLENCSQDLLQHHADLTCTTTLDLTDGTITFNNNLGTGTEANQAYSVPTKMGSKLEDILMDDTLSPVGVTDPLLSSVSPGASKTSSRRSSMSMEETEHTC
As to the kind of experiment: TRPM1 promoter luciferase signal decrease, dose response, MITF inhibitor project, cell-based, SK-MEL-5, cherry-picked, set 3 (AID 493073).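 Also: SK-MEL-5 melanoma cells with luciferase driven by the MITF target TRPM1 promoter.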 It is filed as functional.

Another experiment in a line: cells. The class given is functional.
Experiment [6] can be described thus: Vero E6 cell cytotoxicity, dose response, cytotoxicity control for non-replicating M. tuberculosis project, secondary assay (AID 492998). It is filed as functional, VeroE6. Conditions: Vero C1008.
Experiment [7] can be described thus: THP-1 cell cytotoxicity, dose response, cytotoxicity control for non-replicating M. tuberculosis project (AID 489025). It is filed as functional.
In the next experiment the target is Paired box protein Pax-8 (Homo sapiens, UniProt Q06710). As to the kind of experiment: inhibitors of PAX8-driven TPO luciferase reporter, dose response, RMG-I cells, cherry-pick (AID 687027).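 Also: luciferase reporter driven by Pax8 target thyroperoxidase promoter measured by SteadyGlo luminescence.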 It is filed as functional, cell-based. Background: In a reporter assay the amount or activity of a reporter protein is the signal.
Experiment [8] in a line: inhibitors of PGC1a acetylation in cells, dose response, cell-based, cherry-picked samples (AID 720514).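 Also: potency may reflect raised or lowered acetylation signal.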 The class given is functional.
Experiment [9] can be described thus: HepG2 cell cytotoxicity, dose response, cytotoxicity control for non-replicating M. tuberculosis project (AID 489018). It is filed as functional. Conditions: Mycobacterium tuberculosis.
The target of another experiment is Caspase-6 (Homo sapiens, UniProt P55212). As to the kind of experiment: human caspase-6 inhibitors, dose response, biochemical, VEID-R110 fluorescence, cherry-pick (AID 720632).
Experiment [10] can be described thus: Luminescence-based cell-based high throughput dose response assay to identify activators of the DAF-12 from the parasite S. stercoralis (ssDAF-12). The class given is functional.
Experiment [11] concerns the target T3, Oxysterols receptor LXR-beta (Homo sapiens, UniProt P55055).
T3 sequence (P55055 whole entry): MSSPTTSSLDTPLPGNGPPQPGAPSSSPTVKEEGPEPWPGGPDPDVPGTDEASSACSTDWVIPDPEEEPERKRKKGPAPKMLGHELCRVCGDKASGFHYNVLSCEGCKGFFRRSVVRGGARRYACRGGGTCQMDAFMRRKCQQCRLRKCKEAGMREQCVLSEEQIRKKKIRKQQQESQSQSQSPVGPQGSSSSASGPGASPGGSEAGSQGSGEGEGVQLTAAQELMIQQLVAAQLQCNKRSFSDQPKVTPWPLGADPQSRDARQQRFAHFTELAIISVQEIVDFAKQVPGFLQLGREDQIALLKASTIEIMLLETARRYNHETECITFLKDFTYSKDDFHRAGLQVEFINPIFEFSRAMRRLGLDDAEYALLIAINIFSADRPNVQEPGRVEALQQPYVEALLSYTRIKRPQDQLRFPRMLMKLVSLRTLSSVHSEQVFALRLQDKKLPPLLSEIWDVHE
Put plainly: LXR agonists, Gal4 luciferase reporter, dose response, counter-screen for ssDAF-12 agonist project, cell-based, luminescence, HEK293, S. stercoralis campaign (AID 720737). It is filed as functional. Conditions: read-out: IC50 (the source's name).

Experiment [12] can be described thus: HEK293 cell cytotoxicity, dose response, cytotoxicity control, plate reader, cherry-picked samples (AID 743446). The class given is functional, cell-based.
The nature of experiment [13]: MC4R antagonists, dose response, counter-screen for LGR2 antagonist project, cell-based, plate reader, cherry pick (AID 743444).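 Also: transfected HEK 293 cells stimulated with alpha-MSH peptide; potency of inhibitors of the alpha-MSH evoked signal.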 The class given is functional.
Experiment [14] in a line: LGR2 antagonists, dose response, cell-based, HEK293, CRE-luciferase reporter, cherry pick, set 2 (AID 743343).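 Also: transfected cells were stimulated with diluted bursicon conditioned medium after compound addition.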 The class given is functional.

Sequence of fMet-Leu-Phe receptor (P21462 whole entry): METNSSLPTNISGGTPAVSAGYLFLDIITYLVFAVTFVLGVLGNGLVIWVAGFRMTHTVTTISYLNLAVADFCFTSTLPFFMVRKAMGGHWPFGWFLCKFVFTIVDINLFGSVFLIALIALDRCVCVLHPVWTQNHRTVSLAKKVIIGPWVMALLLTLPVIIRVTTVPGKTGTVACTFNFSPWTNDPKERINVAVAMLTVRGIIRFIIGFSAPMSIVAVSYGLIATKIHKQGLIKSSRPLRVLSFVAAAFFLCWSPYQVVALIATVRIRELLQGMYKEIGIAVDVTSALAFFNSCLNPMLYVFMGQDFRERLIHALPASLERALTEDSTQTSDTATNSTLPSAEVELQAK
Sequence of Cytochrome P450 3A4 (P08684 whole entry): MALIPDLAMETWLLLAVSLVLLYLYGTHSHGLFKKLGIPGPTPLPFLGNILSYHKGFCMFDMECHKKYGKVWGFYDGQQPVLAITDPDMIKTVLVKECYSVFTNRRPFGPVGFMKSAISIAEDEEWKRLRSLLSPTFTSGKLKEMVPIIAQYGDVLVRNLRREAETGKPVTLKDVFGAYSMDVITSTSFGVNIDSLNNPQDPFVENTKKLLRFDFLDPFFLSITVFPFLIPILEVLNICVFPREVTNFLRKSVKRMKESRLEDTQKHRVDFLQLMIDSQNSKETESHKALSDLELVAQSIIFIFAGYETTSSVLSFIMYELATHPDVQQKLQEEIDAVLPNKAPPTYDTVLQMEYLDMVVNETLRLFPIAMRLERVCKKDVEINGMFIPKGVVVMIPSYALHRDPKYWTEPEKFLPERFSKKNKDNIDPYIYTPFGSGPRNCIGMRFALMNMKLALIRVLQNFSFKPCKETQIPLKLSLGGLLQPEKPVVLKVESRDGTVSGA
Sequence of Paired box protein Pax-8 (Q06710 whole entry): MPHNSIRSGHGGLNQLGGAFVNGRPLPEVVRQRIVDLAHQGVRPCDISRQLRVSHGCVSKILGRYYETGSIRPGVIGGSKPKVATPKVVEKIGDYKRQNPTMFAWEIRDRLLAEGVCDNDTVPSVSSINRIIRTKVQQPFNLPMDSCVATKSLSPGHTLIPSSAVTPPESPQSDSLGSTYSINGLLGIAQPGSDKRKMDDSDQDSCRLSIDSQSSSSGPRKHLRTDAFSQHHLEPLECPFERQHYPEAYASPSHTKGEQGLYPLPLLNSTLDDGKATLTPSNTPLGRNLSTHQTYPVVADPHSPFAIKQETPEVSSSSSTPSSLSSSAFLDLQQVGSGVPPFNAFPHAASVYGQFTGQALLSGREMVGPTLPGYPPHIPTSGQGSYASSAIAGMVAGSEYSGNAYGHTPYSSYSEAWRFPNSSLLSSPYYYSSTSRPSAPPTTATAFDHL
Sequence of Induced myeloid leukemia cell differentiation protein Mcl-1 (Q07820 whole entry): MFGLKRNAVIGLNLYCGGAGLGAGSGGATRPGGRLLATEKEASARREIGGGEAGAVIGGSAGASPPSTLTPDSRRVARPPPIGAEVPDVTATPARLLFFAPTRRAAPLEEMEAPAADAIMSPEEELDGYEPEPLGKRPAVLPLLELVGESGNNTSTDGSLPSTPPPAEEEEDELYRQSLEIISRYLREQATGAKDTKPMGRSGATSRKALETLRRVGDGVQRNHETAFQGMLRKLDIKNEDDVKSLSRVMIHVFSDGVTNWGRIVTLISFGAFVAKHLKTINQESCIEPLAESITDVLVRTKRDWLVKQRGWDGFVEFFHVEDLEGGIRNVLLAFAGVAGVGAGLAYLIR
Sequence of Caspase-6 (P55212 24-179 limits assumed): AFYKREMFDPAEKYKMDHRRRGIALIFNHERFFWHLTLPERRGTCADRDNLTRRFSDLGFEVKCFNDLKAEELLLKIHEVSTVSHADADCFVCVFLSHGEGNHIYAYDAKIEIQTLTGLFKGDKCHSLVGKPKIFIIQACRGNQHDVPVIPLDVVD
Sequence of Caspase-6 (P55212 194-293 limits assumed): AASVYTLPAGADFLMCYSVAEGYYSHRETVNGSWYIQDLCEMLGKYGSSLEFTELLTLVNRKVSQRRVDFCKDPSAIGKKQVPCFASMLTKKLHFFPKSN

For the compound `COc1ncccc1-c1nnn(-c2ccc(F)cc2)n1`, the IC50 on Bcl-2-related protein A1 [1] and on Bcl-2-related protein A1 [3] was > 100 µM (not active) each time. The AC50 in experiment [2] is 26 µM (active).
Turning to `O=C(NC1CCCCC1)c1sc(=S)n2c1[nH]c(=O)c1ccccc12`, in [4], the IC50 was > 54 µM (active). Also, the Ki on fMet-Leu-Phe receptor was 40.6 µM (inactive). Moreover, the AC50 at Cytochrome P450 3A4 was 0.794 µM (inconclusive).
Turning to `Cc1cccc(C2CC(c3ccc(Cl)cc3)Nc3nc(N)nn32)c1` (stereo not drawn), the Ki at fMet-Leu-Phe receptor is > 66.7 µM (inactive).
`Cn1nnnc1Sc1ncnc2scc(-c3ccc[nH]3)c12`: the AC50 in experiment [5] was 7.32 µM (active); on Paired box protein Pax-8, 2.96 µM (active); in experiment [8], 7.84 µM (active). Besides, the IC50 in the experiment “cells” was 15.2 µM (active). The figures for the CC50 in experiment [6], in [7] and in experiment [9] were 13 µM (active), 14.8 µM (active) and 15.8 µM (active), respectively.
Take `CCOc1ccc2oc(C(=O)Nc3cc(C)ccn3)c(C)c2c1`: in experiment [2], the AC50 was 26 µM (active).
For `O=Cc1ccc(Oc2nc(Cl)ncc2F)cc1`, the AC50 at Caspase-6 was 9.13 µM (active).
For the compound `O=C(Cc1c[nH]c2ccccc12)NNCc1ccc(N(CCCl)CCCl)cc1`, the IC50 in [10] was > 67.5 µM (inactive). For the same compound, the EC50 in experiment [11] is > 67.5 µM (inactive).
Regarding `CC(C)N(C)c1ncnc2c1ncn2[C@H]1CN(Cc2cccnc2)C[C@@H](CO)O1`, in experiment [10], the IC50 is > 67.5 µM (inactive). The EC50 in [11] was > 67.5 µM (inactive).
As for `FC(F)(F)c1cccc(CC2CN(Cc3ccccc3)Cc3ccccc3N2c2cc(Cl)cc(Cl)c2)c1` (stereo not drawn), the AC50 in experiment [12] was > 52 µM (inactive); in experiment [13], 12.5 µM (active); in experiment [14], 22.2 µM (active).
